Source: US12404261B2, “Compounds and compositions for treating conditions associated with cGAS” (Novartis AG, priority 2020, dated 2025)

Target: human truncated cGAS enzyme (147-522 human cGAS) (Homo sapiens (Human), UniProt Q8N884)
Assay: Quantification of cGAS protein inhibition (cGAMP formation measured by LC-MS/MS)
Assay type: biochemical
Outline: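 Human cGAS 147-522 (30 nM) in Tris pH 7.5, NaCl, MgCl2, ZnCl2, Tween 20, started with 5 μM ISD 45 bp dsDNA, 0.5 mM GTP and 0.5 mM ATP. Incubated 1 h at room temperature, then quenched with acetonitrile/TFA. cGAMP quantified by LC-MS/MS against a labelled cGAMP internal standard; IC50 from ratio versus compound concentration.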

[1] = reported for the potential mixture of co-existing tautomers and/or racemates
[2] = reported for the potential mixture in solution of co-existing tautomers and/or racemates

Chain of human truncated cGAS enzyme (147-522 human cGAS) (Q8N884 147-522): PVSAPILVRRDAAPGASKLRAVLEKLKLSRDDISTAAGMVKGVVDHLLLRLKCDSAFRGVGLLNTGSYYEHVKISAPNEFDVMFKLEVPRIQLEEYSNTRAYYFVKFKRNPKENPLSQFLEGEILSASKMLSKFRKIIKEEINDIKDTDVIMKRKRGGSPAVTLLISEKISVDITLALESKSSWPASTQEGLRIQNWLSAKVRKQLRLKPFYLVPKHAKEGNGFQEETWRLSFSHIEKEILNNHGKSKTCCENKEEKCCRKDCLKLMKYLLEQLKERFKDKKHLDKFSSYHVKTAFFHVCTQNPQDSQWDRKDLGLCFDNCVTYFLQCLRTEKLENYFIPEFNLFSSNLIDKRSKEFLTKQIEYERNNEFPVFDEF

| IC50 [1] | IC50 [2] | SMILES |
| --- | --- | --- |
| 33 nM | – | COc1cc2c(-c3cn[nH]c3)c(-c3nnc(C(C)(F)F)[nH]3)n(C)c2c(F)c1Cl [Example 68, 6-chloro-2-(5-(1,1-difluoroethyl)-4H-1,2,4-triazol-3-yl)-7-fluoro-5-methoxy-1-methyl-3-(1H-pyrazol-4-yl)-1H-indole] |
| 38 nM | – | COc1cc2c(-c3cn[nH]c3)c(-c3nnc(C(F)(F)CO)[nH]3)n(C)c2c(F)c1Cl [Example 69, 2-(5-(6-chloro-7-fluoro-5-methoxy-1-methyl-3-(1H-pyrazol-4-yl)-1H-indol-2-yl)-4H-1,2,4-triazol-3-yl)-2,2-difluoroethan-1-ol] |
| 39 nM | – | COCC(F)c1nnc(-c2c(-c3cn[nH]c3)c3cc(OC)c(Cl)c(F)c3n2C)[nH]1 (centres unmarked) [Example 70, 6-chloro-7-fluoro-2-(5-(1-fluoro-2-methoxyethyl)-4H-1,2,4-triazol-3-yl)-5-methoxy-1-methyl-3-(1H-pyrazol-4-yl)-1H-indole] |
| 44 nM | – | COc1cc2c(-c3cn[nH]c3)c(-c3nnc(C(C)F)[nH]3)[nH]c2c(F)c1Cl (centres unmarked) [Example 71, 6-chloro-7-fluoro-2-(5-(1-fluoroethyl)-4H-1,2,4-triazol-3-yl)-5-methoxy-3-(1H-pyrazol-4-yl)-1H-indole] |
| 61 nM | – | COc1cc2c(-c3cn[nH]c3)c(-c3nnc(C(C)F)[nH]3)n(C)c2c(F)c1Cl (centres unmarked) [Example 72, 6-chloro-7-fluoro-2-(5-(1-fluoroethyl)-4H-1,2,4-triazol-3-yl)-5-methoxy-1-methyl-3-(1H-pyrazol-4-yl)-1H-indole] |
| 30 nM | – | COCC(F)(F)c1nnc(-c2c(-c3cn[nH]c3)c3cc(OC)c(Cl)c(C#N)c3n2C)[nH]1 [Example 73, 6-chloro-2-(5-(1,1-difluoro-2-methoxyethyl)-4H-1,2,4-triazol-3-yl)-5-methoxy-1-methyl-3-(1H-pyrazol-4-yl)-1H-indole-7-carbonitrile] |
| 210 nM | – | CCOc1cc2c(-c3cn[nH]c3)c(-c3nnc(C(C)=O)[nH]3)n(C)c2c(F)c1Cl [Example 74, 1-(5-(6-chloro-5-ethoxy-7-fluoro-1-methyl-3-(1H-pyrazol-4-yl)-1H-indo1-2-yl)-4H-1,2,4-triazol-3-yl)ethan-1-one] |
| 4210 nM | – | Oc1cc(-c2c(-c3nnc(C(F)(F)F)[nH]3)[nH]c3c(Cl)c(Cl)ccc23)n[nH]1 [Example 76, 3-(6,7-dichloro-2-(5-(trifluoromethyl)-4H-1,2,4-triazol-3-yl)-1H-indol-3-yl)-1H-pyrazol-5-ol] |
| 1850 nM | – | Oc1cc(-c2c(-c3nnc(C(F)(F)F)[nH]3)[nH]c3c(Cl)c(Cl)ccc23)no1 [Example 77, 3-(6,7-dichloro-2-(5-(trifluoromethyl)-4H-1,2,4-triazol-3-yl)-1H-indol-3-yl)isoxazol-5-ol] |
| 3690 nM | – | FC(F)(F)c1nnc(-c2[nH]c3c(Cl)c(Cl)ccc3c2-c2cc[nH]n2)[nH]1 [Example 78, 6,7-dichloro-3-(1H-pyrazol-3-yl)-2-(5-(trifluoromethyl)-4H-1,2,4-triazol-3-yl)-1H-indole] |
| 39 nM | – | COc1cc2c(-c3cn[nH]c3)c(-c3nnc(C(C)N(C)C)[nH]3)n(C)c2c(F)c1Cl (centres unmarked) [Example 80, 1-(5-(6-chloro-7-fluoro-5-methoxy-1-methyl-3-(1H-pyrazol-4-yl)-1H-indol-2-yl)-4H-1,2,4-triazol-3-yl)-N,N-dimethylethan-1-amine] |
| 91 nM | – | COCC(c1nnc(-c2c(-c3cn[nH]c3)c3cc(OC)c(Cl)c(F)c3n2C)[nH]1)N(C)C (centres unmarked) [Example 81, 1-(5-(6-chloro-7-fluoro-5-methoxy-1-methyl-3-(1H-pyrazol-4-yl)-1H-indol-2-yl)-4H-1,2,4-triazol-3-yl)-2-methoxy-N,N-dimethylethan-1-amine] |
| 30 nM | – | COc1cc2c(-c3cn[nH]c3)c(-c3nnc(C(C)C#N)[nH]3)n(C)c2c(F)c1Cl (centres unmarked) [Example 82, 2-(5-(6-Chloro-7-fluoro-5-methoxy-1-methyl-3-(1H-pyrazol-4-yl)-1H-indol-2-yl)-4H-1,2,4-triazol-3-yl)propanenitrile] |
| 78 nM | – | COC[C@@H](O)c1nnc(-c2c(-n3ccnc3)c3cc(OC)c(Cl)c(F)c3n2C)[nH]1 [Example 83, (S)-1-(5-(6-chloro-7-fluoro-3-(1H-imidazol-1-yl)-5-methoxy-1-methyl-1H-indol-2-yl)-4H-1,2,4-triazol-3-yl)-2-methoxyethan-1-ol] |
| 63 nM | – | COCC(O)c1nnc(-c2c(-n3ccnc3)c3cc(OC)c(Cl)c(F)c3n2C)[nH]1 (centres unmarked) [Example 83a, 1-(5-(6-chloro-7-fluoro-3-(1H-imidazol-1-yl)-5-methoxy-1-methyl-1H-indol-2-yl)-4H-1,2,4-triazol-3-yl)-2-methoxyethan-1-ol] |
| 63 nM | – | COC[C@H](O)c1nnc(-c2c(-n3ccnc3)c3cc(OC)c(Cl)c(F)c3n2C)[nH]1 [Example 84, (R)-1-(5-(6-chloro-7-fluoro-3-(1H-imidazol-1-yl)-5-methoxy-1-methyl-1H-indol-2-yl)-4H-1,2,4-triazol-3-yl)-2-methoxyethan-1-ol] |

| IC50 [1] | IC50 [2] | SMILES |
| --- | --- | --- |
| 91 nM | – | COc1cc2c(-n3ccnc3)c(-c3nnc(OC(C)C)[nH]3)n(C)c2c(F)c1Cl [Example 85, 6-chloro-7-fluoro-3-(1H-imidazol-1-yl)-2-(5-isopropoxy-4H-1,2,4-triazol-3-yl)-5-methoxy-1-methyl-1H-indole] |
| 264 nM | – | COc1cc2c(-n3ccnc3)c(-c3nnc(F)[nH]3)n(C)c2c(F)c1Cl [Example 86, 6-chloro-7-fluoro-2-(5-fluoro-4H-1,2,4-triazol-3-yl)-3-(1H-imidazol-1-yl)-5-methoxy-1-methyl-1H-indole] |
| 43 nM | – | COc1cc2c(-n3ccnc3)c(-c3nnc(F)[nH]3)[nH]c2c(F)c1Cl [Example 87, 6-chloro-7-fluoro-2-(5-fluoro-4H-1,2,4-triazol-3-yl)-3-(1H-imidazol-1-yl)-5-methoxy-1H-indole] |
| 75 nM | – | COCC(=O)c1nnc(-c2c(-n3ccnc3)c3cc(OC)c(Cl)c(F)c3n2C)[nH]1 [Example 88, 1-(5-(6-chloro-7-fluoro-3-(1H-imidazol-1-yl)-5-methoxy-1-methyl-1H-indol-2-yl)-4H-1,2,4-triazol-3-yl)-2-methoxyethan-1-one] |
| 40 nM | – | COCC(F)(F)c1nnc(-c2c(-n3ccnc3)c3cc(OC)c(Cl)c(F)c3n2C)[nH]1 [Example 89, 6-chloro-2-(5-(1,1-difluoro-2-methoxyethyl)-4H-1,2,4-triazol-3-yl)-7-fluoro-3-(1H-imidazol-1-yl)-5-methoxy-1-methyl-1H-indole] |
| 93 nM | – | COc1cc2c(-n3ccnc3)c(-c3nnc(N(C)CCO)[nH]3)n(C)c2c(F)c1Cl [Example 90, 2-((5-(6-chloro-7-fluoro-3-(1H-imidazol-1-yl)-5-methoxy-1-methyl-1H-indol-2-yl)-4H-1,2,4-triazol-3-yl)(methyl)amino)ethan-1-ol] |
| 109 nM | – | COc1cc2c(-n3ccnc3)c(-c3nnc(N4CC[C@@H](O)C4)[nH]3)n(C)c2c(F)c1Cl [Example 91, (R)-1-(5-(6-chloro-7-fluoro-3-(1H-imidazol-1-yl)-5-methoxy-1-methyl-1H-indol-2-yl)-4H-1,2,4-triazol-3-yl)pyrrolidin-3-ol] |
| 81 nM | – | COc1cc2c(-n3ccnc3)c(-c3nnc(N4CC[C@H](O)C4)[nH]3)n(C)c2c(F)c1Cl [Example 92, (S)-1-(5-(6-chloro-7-fluoro-3-(1H-imidazol-1-yl)-5-methoxy-1-methyl-1H-indol-2-yl)-4H-1,2,4-triazol-3-yl)pyrrolidin-3-ol] |
| 60 nM | – | COc1cc2c(-n3ccnc3)c(-c3n[nH]c(C(CO)OC)n3)n(C)c2c(F)c1Cl (centres unmarked) [Example 93, 2-(3-(6-chloro-7-fluoro-3-(1H-imidazol-1-yl)-5-methoxy-1-methyl-1H-indol-2-yl)-1H-1,2,4-triazol-5-yl)-2-methoxyethan-1-ol] |
| 72 nM | – | COc1cc2c(-n3ccnc3)c(-c3nnc(OCCO)[nH]3)n(C)c2c(F)c1Cl [Example 94, 2-((5-(6-chloro-7-fluoro-3-(1H-imidazol-1-yl)-5-methoxy-1-methyl-1H-indol-2-yl)-4H-1,2,4-triazol-3-yl)oxy)ethan-1-ol] |
| 56 nM | – | COc1cc2c(-n3ccnc3)c(-c3nnc(C(F)(F)CO)[nH]3)n(C)c2c(F)c1Cl [Example 95, 2-(5-(6-chloro-7-fluoro-3-(1H-imidazol-1-yl)-5-methoxy-1-methyl-1H-indol-2-yl)-4H-1,2,4-triazol-3-yl)-2,2-difluoroethan-1-ol] |
| 30 nM | – | COc1cc2c(-n3ccnc3)c(-c3nnc(C(O)C(F)F)[nH]3)n(C)c2c(F)c1Cl (centres unmarked) [Example 96, 1-(5-(6-chloro-7-fluoro-3-(1H-imidazol-1-yl)-5-methoxy-1-methyl-1H-indol-2-yl)-4H-1,2,4-triazol-3-yl)-2,2-difluoroethan-1-ol] |
| 37 nM | – | COc1cc2c(-n3ccnc3)c(-c3nnc(C(O)C(F)(F)F)[nH]3)n(C)c2c(F)c1Cl (centres unmarked) [Example 98, 1-(5-(6-chloro-7-fluoro-3-(1H-imidazol-1-yl)-5-methoxy-1-methyl-1H-indol-2-yl)-4H-1,2,4-triazol-3-yl)-2,2,2-trifluoroethan-1-ol] |
| – | 64 nM | COc1cc2c(-n3ccnc3)c(-c3nnc(C(OC)C(F)F)[nH]3)n(C)c2c(F)c1Cl (centres unmarked) [Example 99, 6-chloro-2-(5-(2,2-difluoro-1-methoxyethyl)-4H-1,2,4-triazol-3-yl)-7-fluoro-3-(1H-imidazol-1-yl)-5-methoxy-1-methyl-1H-indole] |
| – | 65 nM | COCC(c1nnc(-c2c(-n3ccnc3)c3cc(OC)c(Cl)c(F)c3n2C)[nH]1)n1ccnc1 (centres unmarked) [Example 100, 2-(5-(1-(1H-imidazol-1-yl)-2-methoxyethyl)-4H-1,2,4-triazol-3-yl)-6-chloro-7-fluoro-3-(1H-imidazol-1-yl)-5-methoxy-1-methyl-1H-indole] |
| – | 721 nM | CCOc1cc2c(-n3ccnc3)c(-c3nnc(C(C)=O)[nH]3)n(C)c2c(F)c1Cl [Example 101, 1-(5-(6-chloro-5-ethoxy-7-fluoro-3-(1H-imidazol-1-yl)-1-methyl-1H-indol-2-yl)-4H-1,2,4-triazol-3-yl)ethan-1-one] |
